We go through 15 molecules from paper PMC12392461, “Beyond Estrogenicity: A Comparative Assessment of Bisphenol A and Its Alternatives in In Vitro Assays Questions Safety of Replacements” (Environmental Science & Technology, 2025).

Entries after “also recorded” stand apart in the source; their conditions may differ. Where two headings read alike, the source gives them in different places.

The test system of data set [1] is Tox21 assays. The note with it: cited from earlier work.
The conditions of data set [2]: cited from earlier work.
The test system of a further data set is neuronal stem cells. The note with it: ref Liang et al.; cited from earlier work.
The conditions of data set [3]: 15 min.
A short description of data set [4]: Stability in PBS (pH 7.4, 37 °C, 48 h). How it is done: We tested the stability of all BPA alternatives and BPA in 0.1mM PBS (pH 7.4) for 48h at 37° C except for TMCD prior to the bioassay experiments. The experiment was performed as follows: 500 µL of a 2 mg/L solution of the chemical in PBS was aliquoted into 3 HPLC vials (n=3) and incubated for 48 h at 37 °C. The 2 mg/L solution was prepared by diluting the respective 10 g/L stock solution in a 10 mL glass crimp vial with an aluminum cap. For HPLC analysis, 500 µL acetonitrile was added prior to injection.
We have not tested stability of TMCD in aqueous media because we lacked a suitable […]
Figure S2: Detection of Bisphenol alternatives after 48 h incubation in 0.1mM PBS pH 7.4. Each data point represents the mean percentage with error bars indicating standard error of mean (SEM) of n=3 replicates.
S2: Cell culture and bioassays
S2.1: Cell Culturing Conditions
All suppliers and sources are given in detail in SI-Excel S3. The bioassay media for the different assays were prepared as follows: Assay medium for ER alpha-UAS-bla GripTite (ERα) and PPAR gamma-UAS-bla 293H (PPARγ) was prepared with 98% Opti-MEM, supplemented with 2% charcoal-stripped FBS, and 100 U/mL penicillin-streptomycin. MitoOxTox and AhR assay medium was comprised of 90% DMEM with GlutaMAX, supplemented with 10% FBS, and 100 U/mL penicillin-streptomycin. Neurotoxicity assay medium consisted of the neurobasal […]

Data set [5] has as its system Tox21 assays.
Description: We also reanalyzed the Tox21 data of Adamovsky et al. with the updated baseline toxicity prediction model (Table S2).
Another data set has as its system MCF-7 cells. On the set-up: method as in Singh et al. 2024. To be noted: ref Singh et al. 2024; cited from earlier work.
On the set-up of data set [6]: method as in Soto et al. The note with it: ref Soto et al.; cited from earlier work.
The mark [7] stands for this setting: TOX21_CAR_Antagonist, re-evaluated Tox21 data, ref Adamovsky et al 2024.
[8] abbreviates: TOX21_PPARg_BLA_antagonist_ratio, re-evaluated Tox21 data, ref Adamovsky et al 2024.
The mark [9] stands for this setting: Tox21Luc, ref Adamovsky et al. 2024.
Setting [10] is: ATG_PPARg_TRANS_up, re-evaluated Tox21 data, ref Adamovsky et al 2024.
[11] abbreviates: ATG_hPPARg_XSP2_up, re-evaluated Tox21 data, ref Adamovsky et al 2024.
Where [12] appears, read: ATG_NRF2_ARE_CIS_up, re-evaluated Tox21 data, ref Adamovsky et al 2024.
The mark [13] stands for this setting: TOX21_AR_LUC_MDAKB2_Antagonist_0,5nM_R1881, re-evaluated Tox21 data, ref Adamovsky et al 2024.
[14] abbreviates: TOX21_CAR_Agonist, re-evaluated Tox21 data, ref Adamovsky et al 2024.
Setting [15] is: Tox21BLA, ref Adamovsky et al. 2024.
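For REPBPA in this document: published Tox21 results reanalysed with a revised model predicting baseline toxicity.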
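For SRbaseline in this document: published Tox21 results reanalysed with a revised model predicting baseline toxicity.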

Take `Oc1ccc(C2(c3ccc(O)cc3)CCCCC2)cc1` [BPZ, 1,1'-Bis(4-hydroxyphenyl)cyclohexane]: the results for the EC10 in the data set with Tox21 assays [1] (setting [7]), in the data set on Tox21 assays [1] (setting [8]) and in the data set with Tox21 assays [1] (setting [9]) were 4.58e-07 M, 1.84e-06 M and 2.65E-08, respectively.

In the case of `Oc1ccc(Cc2ccc(O)cc2)cc1` [BPF, Bis(4-hydroxyphenyl)methane], the “predicted or literature experimental log Kow” value in data set [2] (ref Hansch, 1995) was 2.91. The “concentration with significant reduction in average neurite length” value (shortened to “concentration with significant reduction”) in the data set on neuronal stem cells was 1 nM. For the same molecule, the EC10 is 3.95e-06 M in the data set on Tox21 assays [1] (setting [10]), 9.55e-06 M in the data set with Tox21 assays [1] (setting [8]) and 8.91E-08 with Tox21 assays [1] (setting [9]). Also, in data set [3], the “reduction of C parent after aCYP oxidation” value was determined as 48%.

On to `CC(C)(c1ccc(OCC2CO2)cc1)c1ccc(OCC2CO2)cc1` (stereo not shown) [BADGE, Bisphenol A diglycidyl ether], for which, in data set [3], the “% Loss” value is given as -5%, the “Cparent-Ratio Mean” value turned out to be 1.05, the “Cparent-Ratio Rep.1” value turned out to be 1.07 and the “Cparent-Ratio Rep.1 %” value was 107.02%. In data set [3], the “Cparent-Ratio Rep.2” value is recorded as 1.03 and the “Cparent-Ratio Rep.2 %” value is on record as 103.48%. Moreover, in data set [4], the “stability in phosphate-buffered saline” value is “unstable in aqueous solution; also recorded: lower parent concentration and potential contributions from hydrolysis products”.

Turning to `CC(C)CC(C)(c1ccc(O)cc1)c1ccc(O)cc1` [BP-MIBK, 4,4'-(1,3-Dimethylbutylidene)diphenol], the “% Loss” value in data set [3] amounted to 10%.

As to `CC(C)(c1cc(Br)c(O)c(Br)c1)c1cc(Br)c(O)c(Br)c1` [TBBPA, 3,3',5,5'-Tetrabromobisphenol A], the EC10 in the data set with Tox21 assays [1] (setting [10]) was 4.64e-07 M; with Tox21 assays [1] (ATG_hPPARg_XSP1_up, re-evaluated Tox21 data, ref Adamovsky et al 2024), 5.02e-07 M; in the data set with Tox21 assays [1] (setting [11]), 2e-07 M; with Tox21 assays [1] (setting [8]) it was 6.2e-08 M. Further, the REPBPA is given as 29.73 with Tox21 assays [5]; 3.44 in the data set with Tox21 assays [5] (ATG_PPARg_TRANS_up, Relative Effect Potency); 2.58 with Tox21 assays [5] (ATG_hPPARg_XSP1_up, Relative Effect Potency); 6.45 in the data set with Tox21 assays [5] (ATG_hPPARg_XSP2_up, Relative Effect Potency). Besides, the SRbaseline in the data set with Tox21 assays [5] is 90.68; with Tox21 assays [5] (ATG_PPARg_TRANS_up, Specificity Ratio), 12.11; with Tox21 assays [5] (ATG_hPPARg_XSP1_up, Specificity Ratio), 11.21; with Tox21 assays [5] (ATG_hPPARg_XSP2_up, Specificity Ratio), 28.04.

As to `Cc1cc(Cc2cc(C)c(O)c(C)c2)cc(C)c1O` [TMBPF, Bis(3,5-dimethyl-4-hydroxyphenyl)methane], in the data set on MCF-7 cells, the “estrogenicity in MCF-7 cells” value was “inactive in estrogenicity assays using MCF-7 cells”. In addition, in data set [6], the estrogenicity in vivo result was “nonestrogenic in vivo”.

With `CC(C)(c1ccc(O)cc1)c1ccc(O)cc1` [BPA, 4,4'-(Propane-2,2-diyl)diphenol, reference compound], the “log (KBSAw /(Lw/Lprotein)) (neutral species)” value in data set [2] (exp. + log(1.36 kg/L), ref Endo and Goss 2011) is given as 3.57. For the same molecule, the “predicted or literature experimental log Kow” value in data set [2] (ref Hansch, 1995) is 3.32. Moreover, the “log D lipw” value in data set [2] (pH 7.4, ref Kwon et al. 2006) is reported as 3.65. In addition, the “log (DBSAw /(Lw/Lprotein) (pH7.4))” value in data set [2] (ref Endo and Goss 2011) is reported as 3.01. Further, in data set [2] (ref Endo and Goss 2011), the “log (KBSAw /(Lw/kgprotein)) (neutral species)” value is recorded as 3.44. The “log (Dlipw/(Lwater/kglipid) or (Lwater/Llipid)) (pH 7.4)” value in data set [2] (ref Kwon et al. 2006) is reported as 3.65. Besides, in the data set on neuronal stem cells, the “concentration with significant reduction” value is 1 nM. Further, the EC10 in the data set with Tox21 assays [1] (setting [12]) is 7.56e-06 M; with Tox21 assays [1] (setting [13]), 2.42e-06 M; with Tox21 assays [1] (setting [14]) it was 1.37e-06 M; in the data set on Tox21 assays [1] (setting [7]), 5.45e-07 M; with Tox21 assays [1] (setting [8]) it was 7.65e-06 M; with Tox21 assays [1] (setting [15]), 5.92E-07. Also, the EC10 with Tox21 assays [1] (setting [9]) is recorded as 5.63E-08.

Consider `Oc1ccc(Sc2ccc(O)cc2)cc1` [BPT, 4,4'-Thiodiphenol], for which, in data set [2] (ref Hansch, 1995), the “predicted or literature experimental log Kow” value was 3.34. Besides, the EC10 in the data set on Tox21 assays [1] (setting [13]) is 1.43e-06 M; in the data set on Tox21 assays [1] (setting [8]), 2.66e-06 M; in the data set with Tox21 assays [1] (setting [9]), 7.19E-08.

For `O=S(=O)(c1ccc(O)cc1)c1ccc(O)cc1` [BPS, 4,4'-Sulfonyldiphenol], in the data set with neuronal stem cells, the “concentration with significant reduction” value was 1 nM. For the same molecule, the “% Loss” value in data set [3] was -2%.

Turning to `CC(C)(c1cc(Cl)c(O)c(Cl)c1)c1cc(Cl)c(O)c(Cl)c1` [TCBPA, 2,2',6,6'-Tetrachlorobisphenol A], the EC10 with Tox21 assays [1] (setting [10]) was 2.35e-07 M; in the data set with Tox21 assays [1] (setting [11]), 4e-07 M; in the data set on Tox21 assays [1] (setting [8]), 4.02e-07 M.

In the case of `CCC(C)(c1ccc(O)cc1)c1ccc(O)cc1` [BPB, 4,4'-(Butane-2,2-diyl)diphenol], the EC10 in the data set on Tox21 assays [1] (setting [12]) was 4.31e-07 M. In the data set with Tox21 assays [1] (setting [13]), the EC10 was 2.58e-06 M. For the same molecule, in the data set with Tox21 assays [1] (setting [14]), the EC10 was 1.15e-06 M. Besides, the EC10 in the data set with Tox21 assays [1] (setting [7]) was 6.91e-08 M. For the same molecule, the EC10 in the data set on Tox21 assays [1] (setting [15]) is recorded as 1.63E-07. Also, the EC10 in the data set with Tox21 assays [1] (setting [9]) is listed as 2.15E-08. Besides, in data set [3], the “% Loss” value was determined as 12%, the “Cparent-Ratio Mean” value came out at 0.88, the “Cparent-Ratio Rep.1” value is 0.80 and the “Cparent-Ratio Rep.1 %” value amounted to 79.66%. For the same molecule, in data set [3], the “Cparent-Ratio Rep.2” value is 0.96 and the “Cparent-Ratio Rep.2 %” value is reported as 96.18%.

Consider `O=C(OCc1ccccc1)c1ccc(O)cc1` [BzPB, Benzyl 4-hydroxybenzoate], for which, in data set [2] (ref Lehner 1993), the “predicted or literature experimental log Kow” value is given as 3.56.

As for `CC(c1ccc(O)cc1)c1ccc(O)cc1` [BPE, 4,4′-Ethylidenbisphenol], the EC10 with Tox21 assays [1] (setting [13]) is 1.63e-06 M; in the data set on Tox21 assays [1] (setting [14]), 1.04e-05 M; with Tox21 assays [1] (setting [8]) it was 1.02e-05 M; with Tox21 assays [1] (setting [15]) it was 1.36E-06; in the data set on Tox21 assays [1] (setting [9]) it was 3.57E-08. Also, the “% Loss” value in data set [3] was 21%.

With `CC(c1ccccc1)(c1ccc(O)cc1)c1ccc(O)cc1` [BPAP, 4,4'-(1-Phenylethylidene)bisphenol], the EC10 in the data set on Tox21 assays [1] (setting [7]) was 1.11e-06 M. Further, the “reduction of C parent after aCYP oxidation” value in data set [3] is given as 25%.

For the molecule `Oc1ccc(C(c2ccc(O)cc2)(C(F)(F)F)C(F)(F)F)cc1` [BPAF, 4,4'-(1,1,1,3,3,3-Hexafluoropropane-2,2-diyl)diphenol], the EC10 in the data set on Tox21 assays [1] (setting [13]) was 2.92e-06 M; with Tox21 assays [1] (setting [14]), 5.35e-06 M; in the data set with Tox21 assays [1] (setting [7]), 4.23e-07 M; with Tox21 assays [1] (setting [8]), 5.75e-06 M; in the data set with Tox21 assays [1] (setting [15]) it was 2.07E-07; in the data set on Tox21 assays [1] (setting [9]) it was 1.10E-08. Further, the “% Loss” value in data set [3] is on record as -9%.
